This is an account of results in ChEMBL document CHEMBL5696442, “Discovery of type II inhibitors of TGFβ-activated kinase 1 (TAK1) and mitogen-activated protein kinase kinase kinase kinase 2 (MAP4K2)” (J Med Chem, 2015).

As usually defined, the inhibition is the relative decrease from the control value, in per cent. A word on the residual activity: it is the signal under treatment as a percentage of the control signal. A low value points to a large loss of activity.

The source made the active and inactive calls. No cut-off for these calls is given here.

Test [1] has as its target Wee1-like protein kinase (Homo sapiens) (UniProt P30291). In words: Inhibition of WEE1 (unknown origin) at 1 uM by Ambit Kinomescan binding assay relative to control.
Test [2] concerns the target 5'-AMP-activated protein kinase catalytic subunit alpha-1 (Homo sapiens) (UniProt Q13131). The experiment in a line: Inhibition of AMPKa1 Lys2 labeling site in human A-375 cells at 0.05 uM by KiNativ Profiling analysis relative to control. Format: cell-based.
Test [3] deals with Ribosomal protein S6 kinase alpha-4 (Homo sapiens) (UniProt O75676). In words: Inhibition of N-terminal RPS6KA4 kinase domain 1 (unknown origin) at 1 uM by Ambit Kinomescan binding assay relative to control.
The target of test [4] is T1, Phosphatidylinositol 5-phosphate 4-kinase type-2 gamma (Homo sapiens) (UniProt Q8TBX8).
T1 sequence (whole entry): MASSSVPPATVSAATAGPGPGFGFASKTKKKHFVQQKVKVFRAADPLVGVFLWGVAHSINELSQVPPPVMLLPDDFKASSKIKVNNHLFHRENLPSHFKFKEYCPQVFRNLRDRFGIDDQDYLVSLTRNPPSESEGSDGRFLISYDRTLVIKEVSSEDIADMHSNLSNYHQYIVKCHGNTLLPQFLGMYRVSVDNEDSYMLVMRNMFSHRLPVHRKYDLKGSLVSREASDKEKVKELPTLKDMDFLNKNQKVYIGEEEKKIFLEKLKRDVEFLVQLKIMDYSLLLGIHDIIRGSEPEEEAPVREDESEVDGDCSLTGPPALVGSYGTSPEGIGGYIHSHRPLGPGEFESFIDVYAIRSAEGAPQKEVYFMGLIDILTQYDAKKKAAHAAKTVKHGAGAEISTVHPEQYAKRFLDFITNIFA
The experiment in a line: Inhibition of PIP5K2C (unknown origin) at 1 uM by Ambit Kinomescan binding assay relative to control; values are per cent of control.

Test [5] addresses Citron Rho-interacting kinase (Homo sapiens) (UniProt O14578). In words: Inhibition of CIT (unknown origin) at 10 uM by Ambit Kinomescan binding assay relative to control; values are per cent of control.
Test [6] addresses Cyclin-dependent kinase 5 (Homo sapiens) (UniProt Q00535). In words: Inhibition of CDK5 K2 labeling site harbouring DLKPQNLLINR in human Huh-7 cells at 10 uM by KiNativ Profiling analysis relative to control. The class given is cell-based.
Test [7] has as its target T2, NUAK family SNF1-like kinase 2 (Homo sapiens) (UniProt Q9H093).
T2 sequence (whole entry): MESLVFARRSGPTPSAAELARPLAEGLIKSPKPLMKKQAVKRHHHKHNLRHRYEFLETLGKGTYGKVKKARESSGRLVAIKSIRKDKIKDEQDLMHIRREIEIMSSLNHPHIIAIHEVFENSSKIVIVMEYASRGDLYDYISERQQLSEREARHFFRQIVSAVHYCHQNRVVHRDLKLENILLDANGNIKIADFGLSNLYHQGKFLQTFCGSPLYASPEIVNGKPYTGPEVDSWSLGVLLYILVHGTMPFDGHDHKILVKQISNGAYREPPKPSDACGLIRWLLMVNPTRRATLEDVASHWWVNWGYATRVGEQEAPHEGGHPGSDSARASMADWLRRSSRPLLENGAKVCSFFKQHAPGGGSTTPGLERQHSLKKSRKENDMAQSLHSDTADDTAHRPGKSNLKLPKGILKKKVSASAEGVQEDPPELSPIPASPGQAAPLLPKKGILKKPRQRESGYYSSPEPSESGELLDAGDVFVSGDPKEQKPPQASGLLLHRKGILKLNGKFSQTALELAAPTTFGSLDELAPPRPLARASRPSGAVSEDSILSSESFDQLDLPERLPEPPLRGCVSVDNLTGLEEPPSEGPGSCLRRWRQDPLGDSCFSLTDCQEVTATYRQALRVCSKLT
The experiment in a line: Inhibition of SNARK (unknown origin) at 10 uM by Ambit Kinomescan binding assay.

In test [8] the target is Serine/threonine-protein kinase PAK 3 (Homo sapiens) (UniProt O75914). The experiment in a line: Inhibition of PAK3 (unknown origin) at 10 uM by Ambit Kinomescan binding assay.
Sequence of Serine/threonine-protein kinase PAK 3 (Homo sapiens) (O75914 whole entry, looked up): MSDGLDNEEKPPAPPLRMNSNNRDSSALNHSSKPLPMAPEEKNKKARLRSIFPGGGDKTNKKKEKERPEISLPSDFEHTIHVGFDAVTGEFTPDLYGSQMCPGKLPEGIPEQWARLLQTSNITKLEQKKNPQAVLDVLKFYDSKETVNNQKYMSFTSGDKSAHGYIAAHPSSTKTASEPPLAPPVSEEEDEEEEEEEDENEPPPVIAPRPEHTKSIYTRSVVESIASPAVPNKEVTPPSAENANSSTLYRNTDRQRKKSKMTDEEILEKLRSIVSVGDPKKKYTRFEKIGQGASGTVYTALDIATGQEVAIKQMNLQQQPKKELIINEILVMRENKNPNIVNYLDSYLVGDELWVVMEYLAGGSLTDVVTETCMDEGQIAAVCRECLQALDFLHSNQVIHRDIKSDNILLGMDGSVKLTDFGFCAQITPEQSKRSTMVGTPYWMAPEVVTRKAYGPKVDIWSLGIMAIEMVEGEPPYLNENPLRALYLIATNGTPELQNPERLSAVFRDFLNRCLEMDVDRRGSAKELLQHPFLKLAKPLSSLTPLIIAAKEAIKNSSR
Test [9] deals with Serine/threonine-protein kinase 25 (Homo sapiens) (UniProt O00506). The experiment in a line: Inhibition of YSK1 (unknown origin) at 10 uM by Ambit Kinomescan binding assay.
Sequence of Serine/threonine-protein kinase 25 (Homo sapiens) (O00506 whole entry, looked up): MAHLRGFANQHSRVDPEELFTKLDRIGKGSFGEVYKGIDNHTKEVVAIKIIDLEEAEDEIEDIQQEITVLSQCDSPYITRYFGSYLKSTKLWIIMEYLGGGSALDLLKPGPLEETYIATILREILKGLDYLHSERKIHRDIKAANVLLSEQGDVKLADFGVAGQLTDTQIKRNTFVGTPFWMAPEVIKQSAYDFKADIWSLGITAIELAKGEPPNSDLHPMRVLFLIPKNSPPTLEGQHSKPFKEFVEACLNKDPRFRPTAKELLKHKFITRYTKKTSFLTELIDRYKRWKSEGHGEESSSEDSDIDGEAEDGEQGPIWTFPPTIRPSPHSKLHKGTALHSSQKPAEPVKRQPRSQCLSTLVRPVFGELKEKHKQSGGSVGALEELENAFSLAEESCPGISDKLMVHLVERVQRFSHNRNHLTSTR
Test [10] concerns the target Serine/threonine-protein kinase DCLK1 (Homo sapiens) (UniProt O15075). In words: Inhibition of DCAMKL1 (unknown origin) at 10 uM by Ambit Kinomescan binding assay.
In test [11] the target is Calcium/calmodulin-dependent protein kinase type II subunit beta (Homo sapiens) (UniProt Q13554). The experiment in a line: Inhibition of CAMK2B (unknown origin) at 10 uM by Ambit Kinomescan binding assay.
In test [12] the target is Serine/threonine-protein kinase MARK2 (Homo sapiens) (UniProt Q7KZI7). In words: Inhibition of MARK2 (unknown origin) at 10 uM by Ambit Kinomescan binding assay.
Sequence of Serine/threonine-protein kinase MARK2 (Homo sapiens) (Q7KZI7 whole entry): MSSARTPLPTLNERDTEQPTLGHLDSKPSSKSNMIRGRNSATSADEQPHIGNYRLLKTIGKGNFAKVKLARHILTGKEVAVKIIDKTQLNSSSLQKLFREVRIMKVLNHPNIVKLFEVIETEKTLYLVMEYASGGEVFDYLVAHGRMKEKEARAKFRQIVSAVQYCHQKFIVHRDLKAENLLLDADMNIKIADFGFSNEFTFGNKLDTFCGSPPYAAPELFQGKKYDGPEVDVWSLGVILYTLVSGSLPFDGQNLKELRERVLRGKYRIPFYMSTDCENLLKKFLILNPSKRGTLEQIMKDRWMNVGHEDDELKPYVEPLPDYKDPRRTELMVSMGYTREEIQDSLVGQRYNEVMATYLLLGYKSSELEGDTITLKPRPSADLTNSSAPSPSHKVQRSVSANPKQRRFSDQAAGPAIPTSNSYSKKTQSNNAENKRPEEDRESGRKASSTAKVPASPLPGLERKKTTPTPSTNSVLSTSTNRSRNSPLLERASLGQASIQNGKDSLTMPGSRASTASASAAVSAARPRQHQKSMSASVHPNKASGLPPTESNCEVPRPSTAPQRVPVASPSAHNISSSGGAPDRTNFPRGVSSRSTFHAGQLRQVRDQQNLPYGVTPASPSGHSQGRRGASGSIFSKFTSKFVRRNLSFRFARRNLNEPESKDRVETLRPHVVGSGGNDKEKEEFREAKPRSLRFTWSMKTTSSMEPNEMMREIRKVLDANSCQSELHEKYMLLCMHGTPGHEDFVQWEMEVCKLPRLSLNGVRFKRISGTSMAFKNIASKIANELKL
The target in test [13] is PKC alpha and beta-2 (Homo sapiens) (UniProt P17252+P05771). The experiment in a line: Inhibition of PKCalpha/beta K2 labeling site in human Huh-7 cells at 10 uM by KiNativ Profiling analysis relative to control. Format: cell-based.
Test [14] has as its target T1, Phosphatidylinositol 5-phosphate 4-kinase type-2 gamma (Homo sapiens). The experiment in a line: Inhibition of PIP4K2C ATP labeling site harbouring TLVIKEVSSEDIADMHSNLSNYHQYIVK in human A-375 cells at 0.05 uM by KiNativ Profiling analysis relative to control. Format: cell-based.
The target of test [15] is Ribosomal protein S6 kinase beta-2 (Homo sapiens) (UniProt Q9UBS0). In words: Inhibition of p70S6Kb Lys2 labeling site in human Huh-7 cell lysate at 1 uM by KiNativ Profiling analysis relative to control. The class given is subcellular.
The target in test [16] is Mitogen-activated protein kinase 3 (Homo sapiens) (UniProt P27361). In words: Inhibition of Erk1 Lys2 labeling site harbouring DLKPSNLLINTTCDLK in human Huh-7 cell lysate at 1 uM by KiNativ Profiling analysis relative to control. Format: subcellular.
Test [17] addresses Serine/threonine-protein kinase 32C (Homo sapiens) (UniProt Q86UX6). The experiment in a line: Inhibition of YANK3 Lys2 labeling site in human Huh-7 cell lysate at 1 uM by KiNativ Profiling analysis relative to control. The class given is subcellular.
Test [18] addresses T1, Phosphatidylinositol 5-phosphate 4-kinase type-2 gamma (Homo sapiens). The experiment in a line: Inhibition of PIP4K2C ATP labeling site harbouring VKELPTLKDMDFLNK in human Huh-7 cells at 1 uM by KiNativ Profiling analysis relative to control. The class given is cell-based.
Test [19] concerns the target Serine/threonine-protein kinase 32C (Homo sapiens) (UniProt Q86UX6). In words: Inhibition of YANK3 Lys2 labeling site in human Huh-7 cells at 1 uM by KiNativ Profiling analysis relative to control. The class given is cell-based.
Test [20] can be described thus: Inhibition of KHS1 Lys2 labeling site harbouring DIKGANILLTDHGDVK in human Huh-7 cells at 1 uM by KiNativ Profiling analysis relative to control. The following applies: condition cancer.
Test [21] addresses Phosphatidylinositol 4-kinase alpha (Homo sapiens) (UniProt P42356). The experiment in a line: Inhibition of PI4KA ATP labeling site in human Huh-7 cells at 1 uM by KiNativ Profiling analysis relative to control. Format: cell-based.

Sequence of Serine/threonine-protein kinase 32C (Homo sapiens) (Q86UX6 whole entry): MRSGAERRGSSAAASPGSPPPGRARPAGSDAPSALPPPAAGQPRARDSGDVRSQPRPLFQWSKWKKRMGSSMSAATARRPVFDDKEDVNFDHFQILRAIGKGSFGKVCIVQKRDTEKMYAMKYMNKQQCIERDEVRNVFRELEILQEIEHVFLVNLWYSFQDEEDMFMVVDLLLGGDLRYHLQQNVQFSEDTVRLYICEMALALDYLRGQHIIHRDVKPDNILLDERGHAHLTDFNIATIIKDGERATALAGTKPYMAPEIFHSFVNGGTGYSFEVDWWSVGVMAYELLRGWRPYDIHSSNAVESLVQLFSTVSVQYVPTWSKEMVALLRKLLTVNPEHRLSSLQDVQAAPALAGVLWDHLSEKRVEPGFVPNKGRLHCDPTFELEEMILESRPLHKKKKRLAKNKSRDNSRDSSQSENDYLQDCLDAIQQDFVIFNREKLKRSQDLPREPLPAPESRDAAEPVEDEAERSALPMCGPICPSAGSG
Sequence of Citron Rho-interacting kinase (Homo sapiens) (O14578 whole entry): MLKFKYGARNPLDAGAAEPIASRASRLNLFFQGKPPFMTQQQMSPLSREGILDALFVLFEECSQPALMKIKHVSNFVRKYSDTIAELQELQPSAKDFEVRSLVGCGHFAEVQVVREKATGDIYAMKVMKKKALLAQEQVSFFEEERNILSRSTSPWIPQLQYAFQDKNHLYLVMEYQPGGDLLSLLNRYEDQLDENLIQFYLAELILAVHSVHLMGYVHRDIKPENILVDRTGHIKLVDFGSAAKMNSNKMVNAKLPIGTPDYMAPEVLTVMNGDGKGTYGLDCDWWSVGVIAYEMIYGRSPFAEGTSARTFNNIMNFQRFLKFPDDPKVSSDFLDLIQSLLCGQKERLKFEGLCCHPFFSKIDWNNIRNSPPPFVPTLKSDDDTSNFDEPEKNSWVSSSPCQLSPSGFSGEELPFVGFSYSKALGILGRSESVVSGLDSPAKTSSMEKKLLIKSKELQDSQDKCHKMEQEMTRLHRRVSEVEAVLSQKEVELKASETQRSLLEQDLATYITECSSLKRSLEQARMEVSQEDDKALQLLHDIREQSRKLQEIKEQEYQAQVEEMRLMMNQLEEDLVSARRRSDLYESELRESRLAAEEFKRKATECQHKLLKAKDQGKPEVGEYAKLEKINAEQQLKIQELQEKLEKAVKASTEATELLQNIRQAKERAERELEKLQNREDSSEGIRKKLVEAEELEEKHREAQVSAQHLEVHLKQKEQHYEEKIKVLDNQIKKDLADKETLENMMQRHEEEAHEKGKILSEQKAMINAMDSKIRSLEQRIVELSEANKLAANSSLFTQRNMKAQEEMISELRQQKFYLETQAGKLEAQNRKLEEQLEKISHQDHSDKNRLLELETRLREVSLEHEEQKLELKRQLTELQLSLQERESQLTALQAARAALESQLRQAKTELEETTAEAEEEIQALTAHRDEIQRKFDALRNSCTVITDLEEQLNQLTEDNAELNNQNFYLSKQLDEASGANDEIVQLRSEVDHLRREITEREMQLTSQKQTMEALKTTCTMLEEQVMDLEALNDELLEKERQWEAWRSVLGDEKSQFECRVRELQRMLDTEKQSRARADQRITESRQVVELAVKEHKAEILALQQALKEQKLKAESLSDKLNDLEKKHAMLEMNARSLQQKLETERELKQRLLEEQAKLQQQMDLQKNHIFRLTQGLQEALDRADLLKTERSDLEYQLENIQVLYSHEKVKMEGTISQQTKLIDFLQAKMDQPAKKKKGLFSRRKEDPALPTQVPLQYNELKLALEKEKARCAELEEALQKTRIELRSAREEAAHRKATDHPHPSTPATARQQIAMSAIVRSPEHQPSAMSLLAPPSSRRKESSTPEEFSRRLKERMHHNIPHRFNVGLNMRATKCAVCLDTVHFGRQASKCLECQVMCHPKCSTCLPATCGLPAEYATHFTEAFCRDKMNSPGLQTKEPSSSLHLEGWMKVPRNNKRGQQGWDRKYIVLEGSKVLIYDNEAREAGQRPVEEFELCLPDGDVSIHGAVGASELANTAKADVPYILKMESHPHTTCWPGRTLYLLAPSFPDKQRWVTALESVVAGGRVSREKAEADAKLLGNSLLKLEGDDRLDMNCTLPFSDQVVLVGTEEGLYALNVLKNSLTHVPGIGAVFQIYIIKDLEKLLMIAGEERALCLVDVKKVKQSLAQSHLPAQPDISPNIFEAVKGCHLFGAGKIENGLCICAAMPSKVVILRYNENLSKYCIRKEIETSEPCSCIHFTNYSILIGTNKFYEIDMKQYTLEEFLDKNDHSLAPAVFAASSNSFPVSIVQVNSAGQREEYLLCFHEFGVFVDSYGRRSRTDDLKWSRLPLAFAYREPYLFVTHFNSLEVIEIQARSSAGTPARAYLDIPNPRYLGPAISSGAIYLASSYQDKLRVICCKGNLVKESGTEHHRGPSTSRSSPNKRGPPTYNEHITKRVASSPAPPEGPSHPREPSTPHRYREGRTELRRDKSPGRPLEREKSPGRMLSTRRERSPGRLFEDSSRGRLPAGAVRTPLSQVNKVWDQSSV
Sequence of 5'-AMP-activated protein kinase catalytic subunit alpha-1 (Homo sapiens) (Q13131 whole entry, looked up, the tested form may be a part): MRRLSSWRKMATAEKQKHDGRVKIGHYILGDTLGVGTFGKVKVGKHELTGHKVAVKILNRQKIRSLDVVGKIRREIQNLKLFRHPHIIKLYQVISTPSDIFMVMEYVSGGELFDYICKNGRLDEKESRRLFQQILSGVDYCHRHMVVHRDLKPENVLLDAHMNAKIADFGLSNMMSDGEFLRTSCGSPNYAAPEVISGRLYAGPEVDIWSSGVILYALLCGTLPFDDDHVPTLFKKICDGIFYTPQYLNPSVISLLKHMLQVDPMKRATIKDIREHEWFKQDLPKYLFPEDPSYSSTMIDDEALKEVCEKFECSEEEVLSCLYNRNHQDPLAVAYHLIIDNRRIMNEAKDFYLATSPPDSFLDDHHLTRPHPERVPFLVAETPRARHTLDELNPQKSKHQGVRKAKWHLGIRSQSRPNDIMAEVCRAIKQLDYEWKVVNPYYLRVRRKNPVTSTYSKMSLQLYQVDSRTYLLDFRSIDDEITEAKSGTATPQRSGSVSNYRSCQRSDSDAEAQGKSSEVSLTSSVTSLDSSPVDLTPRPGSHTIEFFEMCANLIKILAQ

`CCN1CCN(Cc2ccc(NC(=O)c3ccc(C)c(/C=C/c4cnc5[nH]ccc5c4OC)c3)cc2C(F)(F)F)CC1`: the inhibition in test [1] amounted to 100%; in test [2], 7.3%; in test [3], 72%. In test [4], the residual activity came out at 100%.

Take `CCN1CCN(Cc2ccc(NC(=O)c3ccc(C)c(Oc4ccnc5[nH]ccc45)c3)cc2C(F)(F)F)CC1`: in [5], the percent of control turned out to be 0.1%. Moreover, the inhibition in [6] is -6.3%; in test [13] it was 1.3%; in test [14], -1.1%. Also, the inhibition entry in test [7], in [8], in test [9], in test [10], in [11] and in [12] was “inactive” in each case.

On to `CNc1cc(Oc2cc(C(=O)Nc3cc(N4CCN(C)CC4)cc(C(F)(F)F)c3)ccc2C)ncn1`, for which the inhibition is -8.4% in test [15]; -4.1% in test [16]; -3.3% in test [17]; 5.4% in test [18]; 12.2% in test [19]; 29.8% in [21]. Also, in test [20], the inhibition at 1 µM was -57.8%.
